Results reported in patent publication US20250340457A1, “SYSTEMS AND METHODS FOR EXTRACTION OF FLUORINATED HYDROCARBONS” (Khalifa University of Science and Technology, priority 2024, published 2025).
In brackets after ≈: the same amount, converted by molar mass. Where two headings read alike, the source gives them in different places.

Legend:
[1] = cited from earlier work
[2] = Thermogravimetric analysis (onset decomposition temperature); assay type: physicochemical
Description: FIG. 6B illustrates thermogravimetric profiles of TOPO, LauA, and TOPO: LauA (1:1), according to some embodiments. Thermogravimetric analysis is another essential solvent characterization method and is vital for identifying the maximum operational temperature range of a solvent. The onset decomposition temperature (Tonset) marks the start of a noticeable weight loss, indicating initial thermal degradation. Table 3 lists the onset temperatures for TOPO: LauA (1:1), and its thermogravimetric profile is shown in FIG. 6B along with the profiles of pure TOPO and lauric acid for comparison. Hydrogen bonding plays an important role in DES stability by reducing molecular volatility and increasing the energy needed for decomposition. […] This intermediate Tonset reflects the delicate balance of H-bonding strength in the DES that is affected from both the stability of the individual components and the new interactions they form when combined.

[3] = cited from earlier work; remark: listed apart in the source
rat = conditions: cited from earlier work
[4] = 25° C.; cited from earlier work

Row | Onset decomposition temperature (Tonset) [2] [°C] | SMILES | water solubility [1] [µg/mL] | serum elimination half-lives [3] [years] | also measured
1 | 207 | CCCCCCCCCCCC(=O)O [Lauric acid, lauric acid] | 0.4 (≈ 2 µM) |  | 
2 |  | O=C(O)C(F)(F)C(F)(F)C(F)(F)C(F)(F)C(F)(F)C(F)(F)C(F)(F)F [PFOA, perfluorooctanoic acid] |  | 5.4 | 
3 |  | O=S(=O)(O)C(F)(F)C(F)(F)C(F)(F)C(F)(F)C(F)(F)C(F)(F)C(F)(F)C(F)(F)F [PFOS, perfluorooctane sulfonic acid] |  | 3.8 | 
4 | 281 | CCCCCCCCP(=O)(CCCCCCCC)CCCCCCCC [TOPO, trioctylphosphine oxide] | 0.15 (≈ 0.388 µM) |  | LD50 (oral, rat) (rat; in vivo, po): 2,000 mg/kg
5 |  | C[N+](C)(C)CCO.[Cl-] [choline chloride, reference compound] |  |  | LD50 (oral, rat) (rat; oral): 3,900 mg/kg
6 |  | Cc1ccc(C(C)C)c(O)c1 [thymol] |  |  | inherent density [4]: 0.967 g/mL
